Test results: ChEMBL document CHEMBL1201862, “PubChem BioAssay data set” (2004)
Active and inactive are the calls of the source.

Assays:
Beta-galactosidase = Beta-galactosidase (Escherichia coli, UniProt Q8VNN2); assay: PubChem AID 485352; assay type: functional
[1] = target: Type-1 angiotensin II receptor (Homo sapiens, UniProt P30556); assay: antagonism of angiotensin II type 1 receptor – cell-based, uHTS hits, selectivity assay for APJ receptor antagonist project, dose response (AID 463214); assay type: functional;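 also: antagonist potency against angiotensin II stimulated AT1 response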
[2] = microbe, parasite or virus in culture; assay type: functional; conditions: Mycobacterium tuberculosis
[3] = target: T1, Endoribonuclease toxin MazF (Escherichia coli K-12, UniProt P0AE70); assay: SAR analysis of small molecule activators of the MazEF TA System via a fluorescence-based single-stranded RNase assay counterscreen. [Related pubchem assays (depositor defined):AID504720, AID504743]; assay type: functional
T1 sequence (P0AE70 whole entry): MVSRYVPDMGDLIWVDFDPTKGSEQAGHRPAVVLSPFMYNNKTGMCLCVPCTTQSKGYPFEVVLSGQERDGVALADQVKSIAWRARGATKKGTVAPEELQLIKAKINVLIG

[4] = target: T1, Endoribonuclease toxin MazF; assay: activation of MazEF endoribonuclease cleavage – biochemical, fluorescence, single-stranded RNA substrate, uHTS hits, dose response (AID 588481); assay type: functional
MEF = assay: SAR analysis of small molecule cytotoxicity of MazEF TA System activators in embryonic fibroblast (MEF) cells. [Related pubchem assays (depositor defined):AID504720, AID504743]; assay type: functional; conditions: Mus musculus
[5] = target: T1, Endoribonuclease toxin MazF; assay: substrate-only fluorescence increase artefacts – biochemical, single-stranded RNase substrate, counter-screen for MazEF activator project, dose response (AID 588502); assay type: functional
[6] = target: T1, Endoribonuclease toxin MazF; assay: MazEF toxin-antitoxin RNase activation – biochemical, fluorescence, single-stranded RNA substrate, SAR follow-up (AID 588603); assay type: functional
[7] = target: Intestinal-type alkaline phosphatase (Mus musculus, UniProt P24822); assay: PubChem AID 488785; assay type: functional
[8] = target: T2, Alkaline phosphatase, tissue-nonspecific isozyme (Homo sapiens, UniProt P05186); assay: TNAP enzyme inhibition by screening hits, dose response, selectivity assay for mouse IAP inhibitor project, biochemical, human TNAP, uHTS hits (AID 488906); assay type: functional
T2 sequence (P05186 whole entry): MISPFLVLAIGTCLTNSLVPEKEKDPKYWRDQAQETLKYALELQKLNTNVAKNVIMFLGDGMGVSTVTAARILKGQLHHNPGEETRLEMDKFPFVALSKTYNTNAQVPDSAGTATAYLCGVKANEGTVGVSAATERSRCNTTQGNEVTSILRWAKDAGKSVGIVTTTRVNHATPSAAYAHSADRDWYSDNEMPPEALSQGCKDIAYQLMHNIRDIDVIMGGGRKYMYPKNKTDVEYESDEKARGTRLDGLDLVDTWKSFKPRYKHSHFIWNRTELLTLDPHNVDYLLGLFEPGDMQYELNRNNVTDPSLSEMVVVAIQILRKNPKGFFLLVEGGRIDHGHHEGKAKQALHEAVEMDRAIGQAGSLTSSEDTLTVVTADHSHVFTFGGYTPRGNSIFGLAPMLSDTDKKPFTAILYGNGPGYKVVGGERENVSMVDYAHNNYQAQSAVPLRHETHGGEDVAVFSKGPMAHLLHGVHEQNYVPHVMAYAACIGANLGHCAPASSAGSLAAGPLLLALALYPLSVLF

[9] = target: Intestinal-type alkaline phosphatase (Homo sapiens, UniProt P09923); assay: inhibition of human intestinal alkaline phosphatase – biochemical, dose response (AID 488876); assay type: functional
[10] = DRD fibroblast viability loss – cell-based, non-viral oncogenic, luminescence, dose response (AID 1934); assay type: functional; conditions: Homo sapiens
BJ [11] = assay: BJ-TERT-LT-ST fibroblast viability loss – cell-based, RAS-independent, luminescence, dose response (AID 1935); assay type: functional; conditions: Homo sapiens;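 also: BJ fibroblasts immortalized with TERT plus LT and ST oncogenes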
BJ [12] = assay: cells; assay type: functional, cell-based; conditions: Homo sapiens
BJ [13] = assay: BJ-TERT fibroblast viability loss – cell-based, RAS-independent, luminescence, dose response (AID 1933); assay type: functional; conditions: Homo sapiens
BJ [14] = assay: growth inhibition of engineered Ras-driven BJ cells – cell-based, alamar blue fluorescence, cherrypicked samples, dose response (AID 2631); assay type: functional; conditions: Homo sapiens;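 also: confirmatory dose-response assay in RAS-dependent BJ fibroblasts engineered with TERT, LT and ST, with cytotoxicity read by fluorescence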
Phospholipase D2 = Phospholipase D2 (Homo sapiens, UniProt O14939); assay: cellular phospholipase D2 inhibition IC50 – cell-based, dose response (AID 602147); assay type: functional;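 also: cellular assay in HEK293 cells overexpressing GFP-tagged PLD2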
Phospholipase D1 = Phospholipase D1 (Homo sapiens, UniProt Q13393); assay: cellular phospholipase D1 inhibition IC50 – cell-based, dose response (AID 602151); assay type: functional;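 also: cellular PLD1 assay in Calu-1 cells stimulated with PMA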
SUMO E1/E2 = SUMO E1/E2 (Homo sapiens, UniProt P63279+Q9UBE0+Q9UBT2); assay: SAR analysis of SUMOylation using HTRF in an in-Vitro dose response assay. [Related pubchem assays (depositor defined):AID2006, AID2011, AID2018, AID2069, AID2658]; assay type: functional
[15] = target: T3, Voltage-gated N-type calcium channel alpha-1B subunit/Amyloid beta A4 precursor protein-binding family A member 1 (Homo sapiens, UniProt Q00975+Q02410); assay: disruptors of Mint-PDZ/N-type channel peptide interaction – biochemical, HTRF, set 2, SAR follow-up (AID 434980); assay type: functional
[16] = target: T3, Voltage-gated N-type calcium channel alpha-1B subunit/Amyloid beta A4 precursor protein-binding family A member 1; assay: disruptors of Mint-PDZ/N-type channel peptide interaction – biochemical, HTRF, SAR follow-up (AID 2489); assay type: functional
[17] = target: T4, Orexin/Hypocretin receptor type 1 (Homo sapiens, UniProt O43613); assay: (§1) Fluorescence-based cell-based high throughput dose response assay for antagonists of the orexin 1 receptor (OX1R; HCRTR1). [Related pubchem assays (depositor defined):AID434989, AID435008, AID463079, AID485270, AID492963, AID492964, AID492965, AID493232, AID504717, AID504718]; assay type: functional
T4 sequence (O43613 whole entry): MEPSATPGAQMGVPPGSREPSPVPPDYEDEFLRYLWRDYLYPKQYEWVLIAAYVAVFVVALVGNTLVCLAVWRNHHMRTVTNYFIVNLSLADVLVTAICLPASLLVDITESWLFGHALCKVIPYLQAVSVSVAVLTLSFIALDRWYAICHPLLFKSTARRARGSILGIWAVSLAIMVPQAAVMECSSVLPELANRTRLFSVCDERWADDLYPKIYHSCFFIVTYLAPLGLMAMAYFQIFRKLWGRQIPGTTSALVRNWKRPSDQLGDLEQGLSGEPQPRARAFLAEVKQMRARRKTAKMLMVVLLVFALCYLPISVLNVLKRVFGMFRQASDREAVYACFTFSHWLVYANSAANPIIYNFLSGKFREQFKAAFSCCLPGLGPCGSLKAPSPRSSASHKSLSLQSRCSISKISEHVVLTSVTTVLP

[18] = target: T4, Orexin/Hypocretin receptor type 1; assay: as §1, with “Homogeneous Time Resolved Fluorescence (HTRF)-based” for “Fluorescence-based”; assay type: functional
Orexin receptor type 2 [19] = target: T5, Orexin receptor type 2 (Homo sapiens, UniProt O43614); assay: Counterscreen assay for antagonists of the orexin 1 receptor (OX1R; HCRTR1): Fluorescence-based cell-based dose response assay for antagonists of the orexin 2 receptor (OX2R; HCRTR2), run by assay provider.; assay type: functional
T5 sequence (O43614 whole entry): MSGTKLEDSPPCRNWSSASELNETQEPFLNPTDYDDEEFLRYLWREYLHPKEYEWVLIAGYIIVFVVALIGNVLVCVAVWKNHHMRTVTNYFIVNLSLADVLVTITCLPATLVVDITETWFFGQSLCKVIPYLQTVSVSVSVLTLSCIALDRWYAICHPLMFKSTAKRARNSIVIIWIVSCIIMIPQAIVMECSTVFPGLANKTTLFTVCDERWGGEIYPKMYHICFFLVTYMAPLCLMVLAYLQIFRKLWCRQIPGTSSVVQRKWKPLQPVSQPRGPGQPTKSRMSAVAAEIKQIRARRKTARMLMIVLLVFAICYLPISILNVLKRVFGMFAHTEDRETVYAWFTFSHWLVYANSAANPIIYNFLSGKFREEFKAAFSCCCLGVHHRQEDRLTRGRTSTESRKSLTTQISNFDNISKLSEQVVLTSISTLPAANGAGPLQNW

CHO-K1 = assay: (§2) Counterscreen for antagonists of the orexin 1 receptor (OX1R; HCRTR1): Homogeneous time resolved fluorescence (HTRF)-based cell-based dose response assay to identify antagonists of the parental CHO-K1 cell line. [Related pubchem assays (depositor defined):AID434989, AID435008, AID463079, AID485270, AID492963, AID492964, AID492965, AID493232, AID504699, AID504701]; assay type: functional; conditions: Cricetulus griseus
Orexin receptor type 2 [20] = target: T5, Orexin receptor type 2; assay: Counterscreen assay for antagonists of the orexin 1 receptor (OX1R; HCRTR1): Homogeneous Time Resolved Fluorescence (HTRF)-based cell-based dose response assay for antagonists of the orexin 2 receptor (OX2R; HCRTR2), run by assay provider.; assay type: functional
[21] = as §2, with “Fluorescence-based” for “Homogeneous time resolved fluorescence (HTRF)-based”, “cell-based high throughput” for “cell-based”, “CHO” for “CHO-K1”; assay type: functional

Beta-galactosidase, sequence (Q8VNN2 whole entry): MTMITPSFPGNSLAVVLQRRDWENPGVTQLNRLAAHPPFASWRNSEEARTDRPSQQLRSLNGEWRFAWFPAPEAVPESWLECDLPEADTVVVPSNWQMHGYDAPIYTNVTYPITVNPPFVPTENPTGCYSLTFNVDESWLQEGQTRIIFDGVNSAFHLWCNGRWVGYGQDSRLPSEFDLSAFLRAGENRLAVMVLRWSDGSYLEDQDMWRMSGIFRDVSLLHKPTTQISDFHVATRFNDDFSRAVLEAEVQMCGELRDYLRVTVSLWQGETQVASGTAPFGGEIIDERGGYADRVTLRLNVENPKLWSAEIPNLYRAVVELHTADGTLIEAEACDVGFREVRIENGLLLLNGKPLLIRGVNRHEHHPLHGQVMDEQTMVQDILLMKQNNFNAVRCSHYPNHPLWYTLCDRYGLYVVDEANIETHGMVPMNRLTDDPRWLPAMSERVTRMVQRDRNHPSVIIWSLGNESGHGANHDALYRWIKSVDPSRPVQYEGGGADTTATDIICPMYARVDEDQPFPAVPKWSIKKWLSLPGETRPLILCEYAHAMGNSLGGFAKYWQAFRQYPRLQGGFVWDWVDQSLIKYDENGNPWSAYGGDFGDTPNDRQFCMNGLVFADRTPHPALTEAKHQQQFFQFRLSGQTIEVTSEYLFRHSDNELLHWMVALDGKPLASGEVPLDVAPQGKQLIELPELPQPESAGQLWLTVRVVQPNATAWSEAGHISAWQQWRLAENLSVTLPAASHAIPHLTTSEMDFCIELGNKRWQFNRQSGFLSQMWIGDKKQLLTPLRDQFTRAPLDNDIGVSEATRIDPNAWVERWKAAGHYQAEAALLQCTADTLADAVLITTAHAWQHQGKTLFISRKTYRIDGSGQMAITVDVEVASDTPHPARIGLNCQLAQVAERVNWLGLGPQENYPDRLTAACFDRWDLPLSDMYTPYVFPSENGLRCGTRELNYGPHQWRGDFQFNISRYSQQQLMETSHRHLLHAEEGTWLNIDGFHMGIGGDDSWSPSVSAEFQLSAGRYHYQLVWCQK
Type-1 angiotensin II receptor, sequence (P30556 whole entry): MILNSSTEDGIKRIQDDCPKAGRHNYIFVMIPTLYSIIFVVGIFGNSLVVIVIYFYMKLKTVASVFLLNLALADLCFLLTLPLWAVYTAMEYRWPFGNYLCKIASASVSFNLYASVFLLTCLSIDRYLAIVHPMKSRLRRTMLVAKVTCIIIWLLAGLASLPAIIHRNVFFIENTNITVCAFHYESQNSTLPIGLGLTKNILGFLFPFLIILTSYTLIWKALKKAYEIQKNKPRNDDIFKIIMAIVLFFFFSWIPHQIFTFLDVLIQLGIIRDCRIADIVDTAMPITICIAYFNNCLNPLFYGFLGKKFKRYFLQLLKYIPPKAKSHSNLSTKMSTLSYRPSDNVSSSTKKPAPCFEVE
T3 sequence (Q00975 whole entry): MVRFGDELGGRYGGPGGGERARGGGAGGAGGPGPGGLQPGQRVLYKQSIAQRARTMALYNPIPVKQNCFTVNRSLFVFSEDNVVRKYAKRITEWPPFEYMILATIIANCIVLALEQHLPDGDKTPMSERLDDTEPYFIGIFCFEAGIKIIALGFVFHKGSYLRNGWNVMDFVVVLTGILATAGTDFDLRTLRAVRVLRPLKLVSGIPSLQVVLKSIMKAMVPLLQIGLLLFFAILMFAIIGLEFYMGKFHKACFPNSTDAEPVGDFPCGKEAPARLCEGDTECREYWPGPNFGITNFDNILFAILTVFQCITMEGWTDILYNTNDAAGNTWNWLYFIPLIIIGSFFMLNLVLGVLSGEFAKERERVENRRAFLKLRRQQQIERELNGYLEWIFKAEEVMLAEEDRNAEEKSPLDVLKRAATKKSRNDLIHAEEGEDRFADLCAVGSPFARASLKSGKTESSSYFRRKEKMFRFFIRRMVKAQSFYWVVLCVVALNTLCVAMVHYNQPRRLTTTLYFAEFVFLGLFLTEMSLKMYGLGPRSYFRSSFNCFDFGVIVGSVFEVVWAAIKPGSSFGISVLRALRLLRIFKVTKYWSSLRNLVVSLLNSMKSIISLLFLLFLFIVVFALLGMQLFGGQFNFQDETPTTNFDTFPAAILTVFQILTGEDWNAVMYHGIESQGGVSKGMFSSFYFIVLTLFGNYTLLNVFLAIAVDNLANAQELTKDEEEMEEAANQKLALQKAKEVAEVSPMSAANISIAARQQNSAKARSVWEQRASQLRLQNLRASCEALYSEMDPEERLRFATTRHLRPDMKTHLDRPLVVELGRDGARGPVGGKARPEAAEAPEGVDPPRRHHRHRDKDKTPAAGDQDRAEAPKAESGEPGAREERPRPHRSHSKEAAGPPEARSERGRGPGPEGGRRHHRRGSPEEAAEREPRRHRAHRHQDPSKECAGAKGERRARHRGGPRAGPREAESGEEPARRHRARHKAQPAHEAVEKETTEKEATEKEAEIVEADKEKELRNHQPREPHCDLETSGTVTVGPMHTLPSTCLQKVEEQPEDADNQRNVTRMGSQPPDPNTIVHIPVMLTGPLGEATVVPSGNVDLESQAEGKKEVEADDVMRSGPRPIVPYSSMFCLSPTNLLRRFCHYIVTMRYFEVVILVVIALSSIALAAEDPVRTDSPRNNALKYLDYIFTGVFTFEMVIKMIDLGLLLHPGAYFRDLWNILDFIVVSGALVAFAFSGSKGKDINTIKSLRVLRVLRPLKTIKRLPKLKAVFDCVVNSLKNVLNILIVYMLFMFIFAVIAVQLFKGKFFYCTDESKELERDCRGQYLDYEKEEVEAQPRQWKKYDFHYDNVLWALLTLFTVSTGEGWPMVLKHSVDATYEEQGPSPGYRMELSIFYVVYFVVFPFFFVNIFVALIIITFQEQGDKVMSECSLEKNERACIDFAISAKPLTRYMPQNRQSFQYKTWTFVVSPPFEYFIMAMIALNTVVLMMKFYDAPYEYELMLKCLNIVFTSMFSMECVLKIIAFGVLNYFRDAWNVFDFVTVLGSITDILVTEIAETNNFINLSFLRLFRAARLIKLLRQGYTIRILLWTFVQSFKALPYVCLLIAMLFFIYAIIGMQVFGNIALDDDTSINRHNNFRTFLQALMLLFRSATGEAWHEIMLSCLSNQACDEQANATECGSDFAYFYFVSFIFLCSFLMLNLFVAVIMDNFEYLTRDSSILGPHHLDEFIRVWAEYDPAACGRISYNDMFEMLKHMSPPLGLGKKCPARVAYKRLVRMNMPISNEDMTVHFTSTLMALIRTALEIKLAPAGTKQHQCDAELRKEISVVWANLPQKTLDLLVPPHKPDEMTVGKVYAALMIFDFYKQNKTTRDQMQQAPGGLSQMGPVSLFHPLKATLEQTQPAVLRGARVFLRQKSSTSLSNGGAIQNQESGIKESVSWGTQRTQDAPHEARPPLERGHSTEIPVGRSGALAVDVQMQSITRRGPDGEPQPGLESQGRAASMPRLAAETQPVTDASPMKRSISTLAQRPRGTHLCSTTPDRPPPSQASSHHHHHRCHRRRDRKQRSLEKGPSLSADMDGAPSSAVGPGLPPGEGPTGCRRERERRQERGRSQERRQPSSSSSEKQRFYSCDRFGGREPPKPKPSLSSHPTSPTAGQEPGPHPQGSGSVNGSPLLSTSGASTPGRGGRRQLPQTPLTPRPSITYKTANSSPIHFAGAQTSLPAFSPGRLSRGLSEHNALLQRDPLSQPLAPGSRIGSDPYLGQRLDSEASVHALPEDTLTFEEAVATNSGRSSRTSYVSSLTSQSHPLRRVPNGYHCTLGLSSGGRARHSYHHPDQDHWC
T3 sequence (Q02410 whole entry): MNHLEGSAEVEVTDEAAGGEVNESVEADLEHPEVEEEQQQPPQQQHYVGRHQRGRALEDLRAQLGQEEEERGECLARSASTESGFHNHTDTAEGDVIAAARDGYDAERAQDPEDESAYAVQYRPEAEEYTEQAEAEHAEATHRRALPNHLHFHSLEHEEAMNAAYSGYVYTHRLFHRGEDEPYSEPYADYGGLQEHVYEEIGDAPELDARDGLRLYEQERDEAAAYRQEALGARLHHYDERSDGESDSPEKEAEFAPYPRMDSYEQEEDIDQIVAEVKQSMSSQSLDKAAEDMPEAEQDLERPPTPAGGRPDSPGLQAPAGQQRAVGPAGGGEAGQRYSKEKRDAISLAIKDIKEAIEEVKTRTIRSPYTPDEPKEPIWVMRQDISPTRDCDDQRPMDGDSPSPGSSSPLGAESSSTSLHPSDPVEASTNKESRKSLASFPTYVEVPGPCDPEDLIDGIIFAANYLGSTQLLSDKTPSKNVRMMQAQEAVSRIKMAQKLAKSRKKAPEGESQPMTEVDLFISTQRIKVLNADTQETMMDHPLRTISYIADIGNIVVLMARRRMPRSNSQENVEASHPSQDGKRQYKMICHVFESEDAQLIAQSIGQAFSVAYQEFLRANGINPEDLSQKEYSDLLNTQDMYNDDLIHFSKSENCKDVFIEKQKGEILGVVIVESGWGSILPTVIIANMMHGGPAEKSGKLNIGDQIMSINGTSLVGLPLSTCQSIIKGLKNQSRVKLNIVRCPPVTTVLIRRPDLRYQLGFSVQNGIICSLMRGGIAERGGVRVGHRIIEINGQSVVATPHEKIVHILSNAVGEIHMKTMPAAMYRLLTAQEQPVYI
Intestinal-type alkaline phosphatase (Homo sapiens, UniProt P09923), sequence (P09923 whole entry): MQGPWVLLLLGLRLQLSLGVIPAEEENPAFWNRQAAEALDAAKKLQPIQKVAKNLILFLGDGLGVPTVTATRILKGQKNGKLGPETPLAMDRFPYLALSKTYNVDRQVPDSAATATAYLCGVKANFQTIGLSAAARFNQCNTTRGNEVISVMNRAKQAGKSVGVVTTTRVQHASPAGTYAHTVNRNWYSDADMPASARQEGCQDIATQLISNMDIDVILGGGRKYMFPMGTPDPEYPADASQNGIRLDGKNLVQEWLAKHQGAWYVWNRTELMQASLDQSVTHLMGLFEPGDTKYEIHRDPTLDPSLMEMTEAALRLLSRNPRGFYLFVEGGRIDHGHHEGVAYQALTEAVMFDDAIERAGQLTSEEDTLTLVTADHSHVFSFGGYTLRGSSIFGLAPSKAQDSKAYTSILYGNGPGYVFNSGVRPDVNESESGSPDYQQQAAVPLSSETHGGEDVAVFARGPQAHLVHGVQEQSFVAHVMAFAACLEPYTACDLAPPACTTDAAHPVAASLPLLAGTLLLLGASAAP

SMILES: CC1CC2=C(CC1/C=N/NC(N)=S)C(C)(C)CCC2 (centres undefined)
- EC50 (Beta-galactosidase): > 40 µM (inactive)
- IC50 [1]: 22.6 µM (not active)
- CC50 [2]: 20.9 µM (active)

SMILES: Cc1c(C(=O)Oc2cc(N)n(S(C)(=O)=O)n2)cccc1[N+](=O)[O-]
- EC50 [3]: > 99 µM (inactive)
- EC50 [4]: 5.59 µM (active)
- CC50 (MEF): > 99 µM (inactive)
- EC50 [5]: > 99 µM (inactive)
- EC50 [6]: 6.63 µM (active)

SMILES: COc1cccc(NC(=O)CN(C)S(=O)(=O)c2ccc3nc(O)oc3c2)c1
- IC50 [7]: 4.03 µM (active)
- IC50 [8]: > 100 µM (inactive)
- IC50 [9]: > 100 µM (inactive)

SMILES: CC(=O)c1ccc(NC(=O)N2CCc3ccccc3C2)cc1
- EC50 [10]: > 150 µM (not active)
- EC50 (BJ [11]): > 150 µM (not active)
- EC50 (BJ [12]): 10.5 µM (active)
- EC50 (BJ [13]): > 150 µM (not active)
- EC50 (BJ [14]): 6.04 µM (active)

SMILES: C[C@@H](CN1CC=C(n2c(=O)[nH]c3ccccc32)CC1)NC(=O)[C@H]1C[C@@H]1c1ccccc1
- IC50 (Phospholipase D2): 20 µM (active)
- IC50 (Phospholipase D1): 0.48 µM (active)

SMILES: COc1ccc(CNC(=O)c2cc(-c3ccco3)nc3ccccc23)cc1
- IC50 (SUMO E1/E2): 2.61 µM (active)
- IC50 [15]: 20.3 µM (active)
- IC50 [16]: > 56.8 µM (inactive)

SMILES: O=C1NC[C@H](c2ccccc2)OC(=O)[C@@H](Cc2ccc(F)cc2)CC/C=C/C[C@@H]1CC(=O)N(CCO)Cc1ccccc1
- EC50 (Beta-galactosidase): 19.5 µM (active)
- IC50 [1]: 33.7 µM (not active)

SMILES: CSc1cccc(NC(=O)C2CCCN(S(=O)(=O)c3cccs3)C2)c1 (centres undefined)
- IC50 [17]: 6.4 µM (active)
- IC50 [18]: 0.546 µM (active)
- IC50 (Orexin receptor type 2 [19]): 5.3 µM (active)
- IC50 (CHO-K1): > 66.2 µM (inactive)
- IC50 (Orexin receptor type 2 [20]): > 50 µM (inactive)
- IC50 [21]: > 49.7 µM (inactive)
